20 molecules from patent US12180226B2, “Spirotricycle RIPK1 inhibitors and methods of uses thereof” (Merck Sharp & Dohme LLC, priority 2021, dated 2024) can be followed below.

In the assay the target is RIPK1 (recombinant GST-RIPK1 kinase domain, residues 1-327) (Homo sapiens (Human), UniProt Q13546). Nature of the assay: RIPK1-ADP-Glo Enzymatic Assay. The assay is classed as biochemical. The note with it: ADP-Glo; 25 nM GST-RIPK1, 300 μM ATP; assay lower limit ~25 nM; read-out: RIPK1 V0 Ec50. The essentials:
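GST-tagged kinase domain (residues 1-327, Sf21-expressed), 25 nM, pre-incubated 30 min with compound at ambient temperature, then reacted 150 min with 300 μM ATP and 3 μM dephosphorylated MBP in HEPES pH 7.3 buffer. ADP measured by ADP-Glo luminescence; EC50 from ten-point titration (top 100000 nM), four-parameter fit.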

Structures can show the parent of a compound that is named as a salt.

Sequence of RIPK1 (recombinant GST-RIPK1 kinase domain, residues 1-327) (Q13546 1-327): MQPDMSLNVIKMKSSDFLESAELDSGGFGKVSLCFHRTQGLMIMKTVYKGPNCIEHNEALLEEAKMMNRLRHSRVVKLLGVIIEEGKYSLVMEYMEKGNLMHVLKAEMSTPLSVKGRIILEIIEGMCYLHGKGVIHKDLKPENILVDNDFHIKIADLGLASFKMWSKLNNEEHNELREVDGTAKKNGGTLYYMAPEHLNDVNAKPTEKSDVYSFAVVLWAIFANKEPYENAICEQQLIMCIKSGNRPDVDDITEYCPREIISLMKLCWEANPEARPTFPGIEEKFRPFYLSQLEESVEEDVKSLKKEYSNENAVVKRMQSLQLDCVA

As to `N#Cc1ccc(F)c(C(=O)N2CCC3(CC2)O[C@@H]2CC[C@@H](c4cc(F)cc(F)c4)N2C3=O)c1` [Example 5.16, 3-((5′S,7a′R)-5′-(3,5-difluorophenyl)-3′-oxo-tetrahydro-3′H-spiro [piperidine-4,2′-pyrrolo-[2,1-b]oxazole]-1-carbon-yl)-4-fluorobenzonitrile], the EC50 is under 25 nM. As to `O=C(c1ccccc1F)N1CCC2(CC1)O[C@@H]1CC[C@@H](c3ccccc3)N1C2=O` [Example 1.10, (5′S,7a′R)-1-(2-fluorobenzene-1-carbonyl)-5′-phenyltetrahydro-3′H-spiro[piperidine-4,2′-pyrrolo[2,1-b] [1,3]oxazol]-3′-one], the EC50 is under 25 nM.

For `O=C1N2[C@@H](CC[C@H]2c2ccccc2)OC12CCN(c1ccc(C3COC3)c3ccnn13)CC2` [Example 18.2, (5′S,7a′R)-1-[4-(oxetan-3-yl)pyrazolo[1,5-a]pyridin-7-yl]-5′-phenyltetrahydro-3′H-spiro[piperidine-4,2′-pyrrolo[2,1-b][1,3]oxazol]-3′-one], the EC50 was 27.6 nM.

On to `Cc1nc(N2CCC3(CC2)OC2CCC(c4cnccn4)N2C3=O)ccc1C#N` (centres unmarked) [Example 4.142, 2-methyl-6-[3′-oxo-5′-(pyrazin-2-yl)tetrahydro-1H,3′H-spiro[piperidine-4,2′-pyrrolo[2,1-b] [1,3]oxazol]-1-yl]pyridine-3-carbonitrile], for which the EC50 was under 25 nM. With `O=C1N2[C@@H](CC[C@H]2c2cc(F)cc(F)c2)OC12CCN(c1nccn3ccnc13)CC2` [Example 13.15, (5′S,7a′R)-5′-(3,5-difluorophenyl)-1-(imidazo[1,2-a]pyrazin-8-yl)tetrahydro-3′H-spiro[piperidine-4,2′-pyrrolo[2,1-b]oxazol]-3′-one, TFA salt], the EC50 was 188 nM. Regarding `N#Cc1cccc(C(=O)N2CCC3(CC2)O[C@@H]2CC[C@@H](c4ccccc4)N2C3=O)c1F` [Example 6.140, 2-fluoro-3-[(5′S,7a′R)-3′-oxo-5′-phenyltetra-hydro-1H,3′H-spiro [piperidine-4,2′-pyrrolo[2,1-b][1,3]oxazole]-1-carbonyl] benzonitrile], the EC50 amounted to 47.1 nM.

`COc1nc(N2CCC3(CC2)O[C@@H]2CC[C@@H](c4cc(F)cc(F)c4)N2C3=O)ncc1F` [Example 4.21, (5′S,7a′R)-5′-(3,5-difluorophenyl)-1-(5-fluoro-4-methoxypyrimidin-2-yl)tetrahydro-3′H-spiro[piperidine-4,2′-pyrrolo[2,1-b] [1,3]oxazol]-3′-one]: the EC50 is under 25 nM. Consider `O=C1N2[C@@H](CC[C@H]2c2ccccc2)OC12CCN(c1ncc(-c3cnco3)cc1F)CC2` [Example 21.5, (5′S,7a′R)-1-[3-fluoro-5-(1,3-oxazol-5-yl)pyridin-2-yl]-5′-phenyltetrahydro-3′H-spiro[piperidine-4,2′-pyrrolo[2,1-b][1,3]oxazol]-3′-one], for which the EC50 was under 25 nM. The same measure for `N#CC1(NC(=O)c2nc(N3CCC4(CC3)O[C@@H]3CC[C@@H](c5cc(F)cc(F)c5)N3C4=O)ncc2F)CCC1` [Example 7.13, N-(1-cyanocyclobutyl)-2-[(5′S,7a′R)-5′-(3,5-difluorophenyl)-3′-oxotetrahydro-1H,3′H-spiro[piperidine-4,2′-pyrrolo[2,1-b][1,3]oxazol]-1-yl]-5-fluoropyrimidine-4-carboxamide]: 191 nM; for `N#Cc1ccc(N2CCC3(O[C@@H]4CC[C@@H](c5ccccc5)N4C3=O)C(F)C2)n2ncnc12` (stereo partly drawn) [Example 4.258, 5-[(5′S,7a′R)-3-fluoro-3′-oxo-5′-phenyltetrahydro-1H,3′H-spiro[piperidine-4,2′-pyrrolo[2,1-b] [1,3]oxazol]-1-yl][1,2,4]triazolo[1,5-a] pyridine-8-carbonitrile]: under 25 nM; for `CC(F)c1cc(N2CCC3(CC2)O[C@@H]2CC[C@@H](c4ccccc4)N2C3=O)ncn1` (stereo partly drawn) [Example 4.215, (5′S,7a′R)-1-[6-(1-fluoroethyl)pyrimidin-4-yl]-5′-phenyltetrahydro-3′H-spiro[piperidine-4,2′-pyrrolo[2,1-b] [1,3]oxazol]-3′-one]: 552 nM. Regarding `O=C1N2[C@@H](CC[C@H]2c2cc(F)cc(F)c2)OC12CCN(c1cccc3ncnn13)CC2` [Example 13.2, (5′S,7a′R)-1-([1,2,4]triazolo[1,5-a]pyridin-5-yl)-5′-(3,5-difluorophenyl)tetrahydro-3′H-spiro[piperidine-4,2′-pyrrolo[2,1-b]oxazol]-3′-one, TFA salt], the EC50 was under 25 nM. As for `N#Cc1ccc(N2CCC3(CC2)O[C@@H]2CC[C@@H](c4ccccc4)N2C3=O)c(F)c1` [Example 4.73, 3-fluoro-4-[(5′S,7a′R)-3′-oxo-5′-phenyltetrahydro-1H,3′H-spiro[piperidine-4,2′-pyrrolo[2,1-b] [1,3]oxazol]-1-yl]benzonitrile], the EC50 was under 25 nM. To `Cc1cn(-c2cc(N3CCC4(CC3)O[C@@H]3CC[C@@H](c5ccccc5)N3C4=O)ncn2)cn1` [Example 4.172, (5′S,7a′R)-1-[6-(4-methyl-1H-imidazol-1-yl)pyrimidin-4-yl]-5′-phenyltetrahydro-3′H-spiro[piperidine-4,2′-pyrrolo[2,1-b] [1,3]oxazol]-3′-one] belongs 25.2 nM; to `CCOC(=O)c1cc(N2CCC3(CC2)O[C@@H]2CC[C@@H](c4ccccc4)N2C3=O)ncn1` [Example 4.23, ethyl 6-[(5′S,7a′R)-3′-oxo-5′-phenyltetrahydro-1H,3′H-spiro[piperidine-4,2′-pyrrolo[2,1-b] [1,3]oxazol]-1-yl]pyrimidine-4-carboxylate], 52.8 nM; to `O=C(c1ccnc2ncnn12)N1CCC2(CC1)O[C@@H]1CC[C@@H](c3cc(F)cc(F)c3)N1C2=O` [Example 6.76, (5′S,7a′R)-5′-(3,5-difluorophenyl)-1-([1,2,4]triazolo[1,5-a]pyrimidine-7-car-bonyl)tetrahydro-3′H-spiro[piperidine-4,2′-pyrrolo[2,1-b] [1,3]oxazol]-3′-one], 182 nM.

`O=C(c1cc(F)c(F)cc1F)N1CCC2(CC1)O[C@@H]1CC[C@@H](c3ccccc3)N1C2=O` [Example 5.10, (5′S,7a′R)-5′-phenyl-1-(2,4,5-trifluorobenzene-1-carbonyl)tetrahydro-3′H-spiro[piperidine-4,2′-pyrrolo[2,1-b][1,3]oxazol]-3′-one]: the EC50 was under 25 nM.

On to `O=C1N2[C@@H](CC[C@H]2c2cc(F)cc(F)c2)OC12CCN(c1nnc3cccnn13)CC2` [Example 13.9, (5′S,7a′R)-1-([1,2,4]triazolo[4,3-b]pyridazin-3-yl)-5′-(3,5-difluorophenyl)tetrahydro-3′H-spiro[piperidine-4,2′-pyrrolo[2,1-b]oxazol]-3′-one, TFA salt], for which the EC50 was 339 nM. With `Cc1cncc(C(=O)N2CCC3(CC2)O[C@@H]2CC[C@@H](c4cc(F)cc(F)c4)N2C3=O)n1` [Example 6.4, (5′S,7a′R)-5′-(3,5-difluorophenyl)-1-(6-methylpyrazine-2-carbonyl)tetrahydro-3′H-spiro[piperidine-4,2′-pyrrolo[2,1-b] [1,3]oxazol]-3′-one], the EC50 is 760 nM. For the molecule `O=C1N2[C@@H](CC[C@H]2c2ccccc2)OC12CCN(c1cc(-c3ccccc3)ncn1)CC2` [Example 4.32, (5′S,7a′R)-5′-phenyl-1-(6-phenylpyrimidin-4-yl)tetrahydro-3′H-spiro[piperidine-4,2′-pyrrolo[2,1-b] [1,3]oxazol]-3′-one], the EC50 is under 25 nM.
